Measured values published in US20120270237A9, “METHODS FOR THE IDENTIFICATION OF KINASE INTERACTING MOLECULES AND FOR THE PURIFICATION OF KINASE PROTEINS” (Cellzone AG, priority 2009, published 2012).

Columns and labels:
Experiment in all cases: Kinobeads competition binding, HL60 cell lysate
Parameters in all cases: endogenous in cells
Conditions in all cases: 10 μM free compound
ULK3 = target: T1, ULK3 (Homo sapiens, UniProt Q6PHR2)
T1 sequence (Q6PHR2 1-472): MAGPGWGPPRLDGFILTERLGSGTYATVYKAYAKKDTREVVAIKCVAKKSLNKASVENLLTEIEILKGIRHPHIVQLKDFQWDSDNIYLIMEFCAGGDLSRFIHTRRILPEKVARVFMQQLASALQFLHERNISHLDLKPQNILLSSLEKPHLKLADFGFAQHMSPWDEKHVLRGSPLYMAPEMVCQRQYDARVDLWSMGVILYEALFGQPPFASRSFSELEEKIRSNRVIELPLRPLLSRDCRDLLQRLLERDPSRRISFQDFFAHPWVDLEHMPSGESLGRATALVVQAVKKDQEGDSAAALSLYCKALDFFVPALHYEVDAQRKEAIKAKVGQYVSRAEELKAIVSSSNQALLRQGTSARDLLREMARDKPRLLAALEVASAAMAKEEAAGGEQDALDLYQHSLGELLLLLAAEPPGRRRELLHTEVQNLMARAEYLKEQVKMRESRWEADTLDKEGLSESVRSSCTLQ
Experimental: (§1) To one aliquot of cell lysate 10 μM of the free compound (FIG. 3, CZC31326) was added and allowed to bind to proteins in the lysate. Then the affinity matrix with the immobilized compound (Example 1) was added to capture proteins that were not interacting with the previously added free compound. Beads were separated from the lysate and bead bound proteins were eluted in SDS sample buffer and subsequently separated by SDS-Polyacrylamide gel electrophoresis (FIG. 4). Suitable gel bands were cut out and subjected to in-gel proteolytic digestion with trypsin. The second lysate aliquot was processed identically, however no free compound was added (DMSO solvent control). Peptides originating from samples 1 and 2 were labeled with iTRAQ reagents (iTRAQ 114 and iTRAQ 117) and the combined samples were analyzed with a nano-flow liquid chromatography system coupled online to a tandem mass spectrometer (LC-MS/MS) experiment followed by iTRAQ reporter ion quantification in the MS/MS spectra (Ross et al., 2004. Mol. Cell. Proteomics 3(12):1154-1169). Further experimental protocols can be found in WO2006/134056 and a previous publication (Bantscheff et al., 2007. Nature Biotechnology 25, 1035-1044). Sepharose-beads with the immobilized compound (100 μl beads per pull-down experiment) were equilibrated in lysis buffer and incubated with a cell lysate sample containing 50 mg of protein on an end-over-end shaker (Roto Shake Genie, Scientific Industries Inc.) for 2 hours at 4° C. Beads were collected, transferred to Mobicol-columns (MoBiTech 10055) and washed with 10 ml lysis buffer containing 0.4% NP40 detergent, followed by 5 ml lysis buffer containing 0.2% detergent. To elute bound proteins, 60 μl 2×SDS sample buffer was added to the column. The column was incubated for 30 minutes at 50° C. and the eluate was transferred to a siliconized microfuge tube by centrifugation. Proteins were then alkylated with 108 mM iodoacetamid. Proteins were then separated by SDS-Polyacrylamide electrophoresis (SDS-PAGE). The peptide extracts of samples treated with 10 μM of free compound (CZC31326) and the solvent control (0.5% DMSO) were treated with different variants of the isobaric tagging reagent (iTRAQ Reagents Multiplex Kit, part number 4352135, Applied Biosystems, Foster City, Calif., USA). The iTRAQ reagents are a set of multiplexed, amine-specific, stable isotope reagents that can label peptides on amino groups in up to four different biological samples enabling simultaneous identification and quantitation of peptides. The iTRAQ reagents were used according to instructions provided by the manufacturer. The samples were resuspended in 10 μl 50 mM TEAB solution, pH 8.5 and 10 μl ethanol were added. The iTRAQ reagent was dissolved in 120 μl ethanol and 10 μl of reagent solution were added to the sample. The labeling reaction was performed at room temperature for one hour on a horizontal shaker and stopped by adding 5 μl of 100 mM TEAB and 100 mM glycine in water. The two labeled sampled were then combined, dried in a vacuum centrifuge and resuspended in 10 μl of 0.1% formic acid in water. Relative protein quantitation was performed using peak areas of iTRAQ reporter ion signals essentially as described in an earlier publication (Bantscheff et al., 2007. Nature Biotechnology 25, 1035-1044).

CK2a1 = CK2a1 (Homo sapiens, UniProt P68400)
Chain of CK2a1 (P68400 whole entry): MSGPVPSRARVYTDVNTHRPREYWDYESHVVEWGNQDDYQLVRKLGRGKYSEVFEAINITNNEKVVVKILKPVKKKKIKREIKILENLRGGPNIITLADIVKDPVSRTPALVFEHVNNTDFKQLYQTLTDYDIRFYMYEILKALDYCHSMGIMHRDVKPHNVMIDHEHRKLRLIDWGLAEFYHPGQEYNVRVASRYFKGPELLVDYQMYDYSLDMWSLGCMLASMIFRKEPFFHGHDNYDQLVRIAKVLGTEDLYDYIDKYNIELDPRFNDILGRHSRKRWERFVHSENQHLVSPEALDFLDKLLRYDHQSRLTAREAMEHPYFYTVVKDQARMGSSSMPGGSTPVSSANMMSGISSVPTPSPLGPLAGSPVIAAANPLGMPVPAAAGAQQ
Experimental: as §1

MAP3K1 = MAP3K1 (Homo sapiens, UniProt Q13233)
Chain of MAP3K1 (Q13233 whole entry): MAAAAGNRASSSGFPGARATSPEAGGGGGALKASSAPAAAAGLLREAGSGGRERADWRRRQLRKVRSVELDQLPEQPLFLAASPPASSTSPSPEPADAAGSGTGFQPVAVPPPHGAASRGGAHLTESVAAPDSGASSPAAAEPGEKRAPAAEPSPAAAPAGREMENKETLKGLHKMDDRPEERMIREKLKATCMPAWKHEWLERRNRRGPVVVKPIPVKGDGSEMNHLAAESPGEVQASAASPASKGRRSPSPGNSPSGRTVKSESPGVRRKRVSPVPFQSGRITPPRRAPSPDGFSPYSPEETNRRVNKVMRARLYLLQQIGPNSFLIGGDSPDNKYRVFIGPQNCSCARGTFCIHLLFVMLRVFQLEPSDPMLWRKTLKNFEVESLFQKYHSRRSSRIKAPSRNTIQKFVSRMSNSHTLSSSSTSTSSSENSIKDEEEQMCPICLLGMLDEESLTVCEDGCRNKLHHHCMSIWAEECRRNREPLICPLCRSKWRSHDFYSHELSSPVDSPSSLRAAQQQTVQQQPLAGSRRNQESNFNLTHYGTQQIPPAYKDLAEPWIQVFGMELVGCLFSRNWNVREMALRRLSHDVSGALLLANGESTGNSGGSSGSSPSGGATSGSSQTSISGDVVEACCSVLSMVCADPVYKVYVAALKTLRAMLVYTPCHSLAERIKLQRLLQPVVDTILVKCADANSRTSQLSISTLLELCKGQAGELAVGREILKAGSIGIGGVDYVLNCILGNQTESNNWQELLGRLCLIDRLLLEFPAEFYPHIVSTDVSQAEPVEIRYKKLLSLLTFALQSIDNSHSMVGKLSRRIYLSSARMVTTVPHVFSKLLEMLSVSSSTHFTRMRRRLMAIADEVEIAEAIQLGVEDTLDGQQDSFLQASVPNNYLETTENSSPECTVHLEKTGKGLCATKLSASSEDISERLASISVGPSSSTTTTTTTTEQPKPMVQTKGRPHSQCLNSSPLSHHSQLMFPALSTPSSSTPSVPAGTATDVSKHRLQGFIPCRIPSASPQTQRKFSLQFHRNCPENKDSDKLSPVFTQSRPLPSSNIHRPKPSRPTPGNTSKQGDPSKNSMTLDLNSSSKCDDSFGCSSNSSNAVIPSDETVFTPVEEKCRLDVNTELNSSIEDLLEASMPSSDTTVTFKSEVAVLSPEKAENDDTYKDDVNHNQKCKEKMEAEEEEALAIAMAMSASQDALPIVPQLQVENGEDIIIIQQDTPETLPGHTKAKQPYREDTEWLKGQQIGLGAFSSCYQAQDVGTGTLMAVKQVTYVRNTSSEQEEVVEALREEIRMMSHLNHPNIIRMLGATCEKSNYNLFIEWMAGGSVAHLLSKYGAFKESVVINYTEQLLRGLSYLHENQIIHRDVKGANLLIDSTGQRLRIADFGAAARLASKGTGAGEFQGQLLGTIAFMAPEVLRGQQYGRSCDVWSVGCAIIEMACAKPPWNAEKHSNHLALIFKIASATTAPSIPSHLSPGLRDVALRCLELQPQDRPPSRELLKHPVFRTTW
Experimental: as §1

TBK1 = target: T2, TBK1 (Homo sapiens, UniProt Q9UHD2)
T2 sequence (Q9UHD2 1-729): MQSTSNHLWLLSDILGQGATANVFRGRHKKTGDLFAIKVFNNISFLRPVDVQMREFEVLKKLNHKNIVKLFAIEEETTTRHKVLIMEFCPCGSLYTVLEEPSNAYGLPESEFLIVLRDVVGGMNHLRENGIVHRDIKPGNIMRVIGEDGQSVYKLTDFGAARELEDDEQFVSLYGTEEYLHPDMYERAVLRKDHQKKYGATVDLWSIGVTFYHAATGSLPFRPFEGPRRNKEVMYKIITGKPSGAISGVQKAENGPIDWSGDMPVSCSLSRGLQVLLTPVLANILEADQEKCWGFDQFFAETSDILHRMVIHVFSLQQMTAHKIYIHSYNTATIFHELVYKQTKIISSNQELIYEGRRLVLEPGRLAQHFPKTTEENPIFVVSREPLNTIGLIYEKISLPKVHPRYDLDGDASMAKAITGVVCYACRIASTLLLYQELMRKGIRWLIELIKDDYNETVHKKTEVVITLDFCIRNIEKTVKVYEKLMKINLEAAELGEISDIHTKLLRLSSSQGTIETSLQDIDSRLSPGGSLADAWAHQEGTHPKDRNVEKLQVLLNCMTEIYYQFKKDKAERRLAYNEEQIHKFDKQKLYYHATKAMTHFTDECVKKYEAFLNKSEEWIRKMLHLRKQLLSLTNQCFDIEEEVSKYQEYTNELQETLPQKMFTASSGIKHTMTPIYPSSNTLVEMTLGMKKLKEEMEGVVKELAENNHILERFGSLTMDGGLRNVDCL
Experimental: as §1

MAP3K4 = MAP3K4 (Homo sapiens, UniProt Q9Y6R4)
Chain of MAP3K4 (Q9Y6R4 whole entry): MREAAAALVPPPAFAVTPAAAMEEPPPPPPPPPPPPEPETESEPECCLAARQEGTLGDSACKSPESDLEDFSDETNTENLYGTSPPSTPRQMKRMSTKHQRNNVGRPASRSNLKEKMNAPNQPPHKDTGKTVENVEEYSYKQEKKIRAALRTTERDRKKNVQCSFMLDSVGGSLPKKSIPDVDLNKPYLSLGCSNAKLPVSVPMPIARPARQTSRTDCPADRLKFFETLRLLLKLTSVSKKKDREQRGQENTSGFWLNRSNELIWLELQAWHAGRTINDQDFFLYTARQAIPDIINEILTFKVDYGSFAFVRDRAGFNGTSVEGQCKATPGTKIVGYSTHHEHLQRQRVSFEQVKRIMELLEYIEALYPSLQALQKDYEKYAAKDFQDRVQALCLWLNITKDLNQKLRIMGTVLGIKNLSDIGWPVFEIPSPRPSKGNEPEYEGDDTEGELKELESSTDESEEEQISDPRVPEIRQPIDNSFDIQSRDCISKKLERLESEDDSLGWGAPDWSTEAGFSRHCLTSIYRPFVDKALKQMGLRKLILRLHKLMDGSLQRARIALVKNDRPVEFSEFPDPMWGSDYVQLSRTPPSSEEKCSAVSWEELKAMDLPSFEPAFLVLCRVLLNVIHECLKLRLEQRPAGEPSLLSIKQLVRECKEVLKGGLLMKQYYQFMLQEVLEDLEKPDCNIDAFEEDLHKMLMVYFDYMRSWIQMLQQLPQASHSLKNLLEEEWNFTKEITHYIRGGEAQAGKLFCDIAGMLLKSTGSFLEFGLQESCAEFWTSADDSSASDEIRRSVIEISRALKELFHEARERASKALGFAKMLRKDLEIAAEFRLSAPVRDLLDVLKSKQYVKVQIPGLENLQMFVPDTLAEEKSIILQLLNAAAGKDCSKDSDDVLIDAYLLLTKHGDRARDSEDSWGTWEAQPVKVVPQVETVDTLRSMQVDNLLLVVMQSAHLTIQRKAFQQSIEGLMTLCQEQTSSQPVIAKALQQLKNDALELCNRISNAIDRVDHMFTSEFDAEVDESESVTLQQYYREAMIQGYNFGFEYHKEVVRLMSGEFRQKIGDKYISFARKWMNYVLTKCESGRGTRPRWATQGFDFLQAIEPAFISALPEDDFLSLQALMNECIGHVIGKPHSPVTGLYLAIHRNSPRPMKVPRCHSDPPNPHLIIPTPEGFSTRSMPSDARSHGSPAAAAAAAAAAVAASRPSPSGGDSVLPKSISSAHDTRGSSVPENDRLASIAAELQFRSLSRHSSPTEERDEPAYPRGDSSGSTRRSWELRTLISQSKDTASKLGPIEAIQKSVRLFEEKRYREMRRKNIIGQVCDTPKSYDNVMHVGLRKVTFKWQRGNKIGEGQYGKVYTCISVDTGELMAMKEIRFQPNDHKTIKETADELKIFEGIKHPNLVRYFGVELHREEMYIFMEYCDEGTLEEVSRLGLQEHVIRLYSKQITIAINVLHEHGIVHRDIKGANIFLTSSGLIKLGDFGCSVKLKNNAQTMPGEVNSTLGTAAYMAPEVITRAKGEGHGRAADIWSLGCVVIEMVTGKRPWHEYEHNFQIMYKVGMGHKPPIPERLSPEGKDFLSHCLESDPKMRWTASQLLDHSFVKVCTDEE
Experimental: as §1

MARK3 = MARK3 (Homo sapiens, UniProt P27448)
Experimental: as §1

MAP3K3 = MAP3K3 (Homo sapiens, UniProt Q99759)
Chain of MAP3K3 (Q99759 whole entry): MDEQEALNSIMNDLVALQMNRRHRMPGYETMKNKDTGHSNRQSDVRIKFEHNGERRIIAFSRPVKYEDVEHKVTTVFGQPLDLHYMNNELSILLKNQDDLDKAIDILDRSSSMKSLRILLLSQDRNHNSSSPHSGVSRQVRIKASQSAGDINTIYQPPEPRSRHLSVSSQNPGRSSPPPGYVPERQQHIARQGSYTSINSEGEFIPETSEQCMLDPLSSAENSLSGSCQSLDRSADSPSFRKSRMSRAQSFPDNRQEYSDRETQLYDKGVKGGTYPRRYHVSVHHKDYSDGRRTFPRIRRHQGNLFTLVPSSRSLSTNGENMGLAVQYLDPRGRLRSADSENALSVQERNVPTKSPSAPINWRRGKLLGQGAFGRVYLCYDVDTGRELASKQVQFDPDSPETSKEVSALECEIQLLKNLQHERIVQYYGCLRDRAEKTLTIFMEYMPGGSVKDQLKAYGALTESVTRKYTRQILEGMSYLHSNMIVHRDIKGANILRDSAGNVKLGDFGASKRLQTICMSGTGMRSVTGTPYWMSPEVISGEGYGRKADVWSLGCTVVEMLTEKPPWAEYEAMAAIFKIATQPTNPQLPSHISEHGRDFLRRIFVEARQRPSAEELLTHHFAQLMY
Experimental: as §1

CDK9 = CDK9 (Homo sapiens, UniProt P50750)
Chain of CDK9 (P50750 whole entry): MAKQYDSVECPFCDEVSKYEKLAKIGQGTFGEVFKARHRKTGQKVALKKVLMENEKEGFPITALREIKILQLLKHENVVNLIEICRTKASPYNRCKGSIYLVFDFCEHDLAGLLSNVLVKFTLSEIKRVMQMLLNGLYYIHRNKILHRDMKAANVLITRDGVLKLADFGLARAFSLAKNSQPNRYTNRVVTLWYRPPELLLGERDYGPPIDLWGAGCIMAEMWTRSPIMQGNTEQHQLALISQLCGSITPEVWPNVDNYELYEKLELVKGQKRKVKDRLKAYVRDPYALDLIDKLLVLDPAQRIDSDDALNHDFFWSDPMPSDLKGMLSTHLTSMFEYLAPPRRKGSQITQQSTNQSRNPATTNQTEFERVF
Experimental: as §1

- Competition % (ULK3): 97.7%
- inhibition at 10 µM (CK2a1): 97.9%
- inhibition at 10 µM (MAP3K1): 87%
- inhibition at 10 µM (TBK1): 94.8%
- inhibition at 10 µM (MAP3K4): 97.2%
- inhibition at 10 µM (MARK3): 97.2%
- inhibition at 10 µM (MAP3K3): 97.6%
- inhibition at 10 µM (CDK9): 98.2%
SMILES: CS(=O)(=O)Nc1ccccc1Nc1nc(Nc2cccc(OCCN)c2)ncc1Cl [CZC31326, N-(2-(2-(3-(2-aminoethoxy)phenylamino)-5-chloropyrimidin-4-ylamino)phenyl)methanesulfonamide]
